Reference: patent US10130633B2, “Compounds” (BAYER PHARMA AKTIENGESELLSCHAFT, priority 2013, dated 2018)

Experiments:
[1] = tested on: HCT116 FOP control reporter cell line; test: HCT116 FOPFlash control reporter assay (FOP control vector, non-functional TCF elements); format: cell-based; conditions: HCT116 FOP control reporter cells, 36 hours incubation, luciferase expression
Excerpt: In a parallel approach, HCT116 cells were cotransfected with the FOP control vector and pcDNA3. The FOP vector is identical to the TOP construct, but it contains instead of functional TCF elements a randomized, non-functional sequence. For this transfection a stable transfected cell line was generated as well.

[2] = tested on: constitutive active colorectal cancer cell (CRC) Wnt pathway; test: HCT116 TOPFlash cellular reporter assay (Super TopFlash luciferase), constitutive active Wnt pathway; format: cell-based; conditions: HCT116 TOP reporter cells, 36 hours incubation, luciferase expression
Experimental: In order to discover and characterize small molecules which inhibit the constitutive active colorectal cancer cell (CRC) Wnt pathway, a cellular reporter assay was employed. […] Stable transfectants were generated by cotransfection with pcDNA3 and selection of stable transfected cells with 1 mg/ml G418.

Row | IC50 ([1]; Homo sapiens, HCT-116, 36 h) [nM] | IC50 ([2]; Homo sapiens, HCT-116, 36 h) [nM] | IC50 [1] [nM] | IC50 [2] [nM] | SMILES
1 | ≥ 50000 | 150 | – | – | O=C(CN1CCOCC1)Nc1cc(C(=O)Nc2nnc(-c3ccccc3)s2)ccc1OC(F)(F)F [Example 55, 3-[(morpholin-4-ylacetyl)amino]-N-(5-phenyl-1,3,4-thiadiazol-2-yl)-4-(trifluoromethoxy)benzamide]
2 | – | – | 28600 | 106 | CC(C(=O)Nc1cc(NC(=O)c2ccc(-c3cccc(F)c3)nc2)ccc1OC(F)(F)F)N1CCOCC1 (stereo not shown) [Example 201, 6-(3-fluorophenyl)-N-[3-{[2-(morpholin-4-yl)propanoyl]amino}-4-(trifluoromethoxy)phenyl] nicotinamide]
3 | 47500 | 704 | – | – | CN1CCN(CC(=O)Nc2cc(C(=O)Nc3nnc(-c4ccc(F)cc4)s3)ccc2OC(F)(F)F)CC1 [Example 149, N-[5-(4-fluorophenyl)-1,3,4-thiadiazol-2-yl]-3-{[(4-methylpiperazin-1-yl)acetyl]amino}-4-(trifluoromethoxy)benzamide]
4 | ≥ 50000 | 46 | – | – | CC(C(=O)Nc1cc(C(=O)Nc2ccc(-c3ccc(N(C)C)cc3)nc2)ccc1OC(F)(F)F)N1CCOCC1 (stereo not shown) [Example 114, N-{6-[4-(dimethylamino)phenyl]pyridin-3-yl}-3-{[2-(morpholin-4-yl)propanoyl]amino}-4-(trifluoromethoxy)benzamide]
5 | – | – | 8550 | 153 | CC(C(=O)Nc1cc(C(=O)Nc2ccc(-c3ccccc3F)nc2)ccc1C(F)(F)F)N1CCOCC1 (stereo not shown) [Example 207, N-[6-(2-fluorophenyl)pyridin-3-yl]-3-{[2-(morpholin-4-yl)propanoyl]amino}-4-(trifluoromethyl)benzamide]
6 | ≥ 50000 | 685 | – | – | CC1CN(C)CCN1CC(=O)Nc1cc(C(=O)Nc2nnc(-c3ccccc3)s2)ccc1OC(F)(F)F (stereo not shown) [Example 167, 3-{[(2,4-dimethylpiperazin-1-yl)acetyl]amino}-N-(5-phenyl-1,3,4-thiadiazol-2-yl)-4-(trifluoromethoxy)benzamide]
7 | ≥ 50000 | 150 | – | – | COCCN(C)C1(C(=O)Nc2cc(C(=O)Nc3nnc(-c4ccccc4)s3)ccc2OC(F)(F)F)CC1 [Example 261, 3-[({1-[(2-methoxyethyl)(methyl)amino]cyclopropyl}carbonyl)amino]-N-(5-phenyl-1,3,4-thiadiazol-2-yl)-4-(trifluoromethoxy)benzamide]
8 | 29500 | 152 | – | – | CN1CCN(CC(=O)Nc2cc(C(=O)Nc3ccc(-c4ccccc4F)nc3)ccc2C(F)(F)F)CC1 [Example 210, N-[6-(2-fluorophenyl)pyridin-3-yl]-3-{[(4-methylpiperazin-1-yl)acetyl]amino}-4-(trifluoromethyl)benzamide]
9 | 42000 | 450 | – | – | CC(C(=O)Nc1cc(C(=O)Nc2ccc(-c3ccc(O)c(F)c3)nc2)ccc1OC(F)(F)F)N1CCOCC1 (stereo not shown) [Example 110, N-[6-(3-fluoro-4-hydroxyphenyl)pyridin-3-yl]-3-{[2-(morpholin-4-yl)propanoyl]amino}-4-(trifluoromethoxy)benzamide]
10 | ≥ 50000 | 2300 | – | – | COc1ccc(NC(=O)c2ccc(-c3ccc(F)cc3)nc2)cc1NC(=O)CN1CCOCC1 [Example 229, 6-(4-fluorophenyl)-N-{4-methoxy-3-[(morpholin-4-ylacetyl)amino]phenyl} nicotinamide]

Row | SMILES | IC50 ([1]; Homo sapiens, HCT-116, 36 h) [nM] | IC50 ([2]; Homo sapiens, HCT-116, 36 h) [nM] | IC50 [1] [nM] | IC50 [2] [nM]
11 | C[C@@H](C(=O)Nc1cc(C(=O)Nc2ccc(-c3ccc(N(C)C)cc3)nc2)ccc1OC(F)(F)F)N1CCOCC1 (single isomer, unassigned) [Example 116, N-{6-[4-(dimethylamino)phenyl]pyridin-3-yl}-3-{[(2S)-2-(morpholin-4-yl)propanoyl]amino}-4-(trifluoromethoxy)benzamide or N-{6-[4-(dimethylamino)phenyl]pyridin-3-yl}-3-{[(2R)-2-(morpholin-4-yl)propanoyl]amino}-4-(trifluoromethoxy)benzamide] | – | – | 8100 | 84
